In ChEMBL document CHEMBL4041467, “Synthesis of novel 15-membered 8a-azahomoerythromycin A acylides: Consequences of structural modification at the C-3 and C-6 position on antibacterial activity” (Eur J Med Chem, 2017):
Converted amounts (≈) assume the structure as drawn.

What was measured:
Format in all cases: functional
Staphylococcus aureus [1] = test: Antibacterial activity against erythromycin susceptible Staphylococcus aureus by agar microdilution method
Streptococcus pneumoniae [2] = test: Antibacterial activity against erythromycin susceptible Streptococcus pneumoniae by agar microdilution method
Streptococcus pyogenes [3] = test: Antibacterial activity against erythromycin susceptible Streptococcus pyogenes by agar microdilution method
Haemophilus influenzae = test: Antibacterial activity against Haemophilus influenzae by agar microdilution method
Streptococcus pneumoniae [4] = test: Antibacterial activity against constitutively macrolide/lincosamide/streptogramin B-resistant Streptococcus pneumoniae by agar microdilution method
Staphylococcus aureus [5] = test: Antibacterial activity against inducibly macrolide/lincosamide/streptogramin B-resistant Staphylococcus aureus by agar microdilution method
Streptococcus pyogenes [6] = test: Antibacterial activity against Mef-mediated macrolide efflux resistant Streptococcus pyogenes by agar microdilution method
Staphylococcus aureus [7] = test: Antibacterial activity against constitutively macrolide/lincosamide/streptogramin B-resistant Staphylococcus aureus by agar microdilution method
Streptococcus pneumoniae [8] = test: Antibacterial activity against Mef-mediated macrolide efflux resistant Streptococcus pneumoniae by agar microdilution method
Streptococcus pyogenes [9] = test: Antibacterial activity against constitutively macrolide/lincosamide/streptogramin B-resistant Streptococcus pyogenes by agar microdilution method

Row | SMILES | MIC (Staphylococcus aureus [1]) [µg/mL] | MIC (Streptococcus pneumoniae [2]) [µg/mL] | MIC (Streptococcus pyogenes [3]) [µg/mL] | MIC (Haemophilus influenzae) [µg/mL] | MIC (Streptococcus pneumoniae [4]) [µg/mL] | MIC (Staphylococcus aureus [5]) [µg/mL] | MIC (Streptococcus pyogenes [6]) [µg/mL] | MIC (Staphylococcus aureus [7]) [µg/mL] | MIC (Streptococcus pneumoniae [8]) [µg/mL] | MIC (Streptococcus pyogenes [9]) [µg/mL]
1 | NCCNc1cc2c(cc1F)c(=O)c(C(=O)O)cn2C1CC1 | > 64 | > 64 | > 64 | > 64 |  |  |  |  |  | 
2 | C=CCO[C@]1(C)C[C@@H](C)NC(=O)[C@H](C)[C@@H](O)[C@](C)(O)[C@@H](CC)OC(=O)[C@H](C)[C@@H](OC(=O)CCNC(C)Cc2ccc([N+](=O)[O-])cc2)[C@H](C)[C@H]1O[C@@H]1O[C@H](C)C[C@H](N(C)C)[C@H]1O (some centres not stated) | 1 (≈ 1.16 µM) | ≤ 0.125 | ≤ 0.125 | 8 (≈ 9.25 µM) | > 64 | 1 (≈ 1.16 µM) | 1 (≈ 1.16 µM) | > 64 | 0.5 (≈ 0.578 µM) | > 64
3 | C=CCO[C@]1(C)C[C@@H](C)NC(=O)[C@H](C)[C@@H](O)[C@](C)(O)[C@@H](CC)OC(=O)[C@H](C)[C@@H](OC(=O)CCN2CCN(c3cc4c(=O)c(C(=O)O)cn(C5CC5)c4cc3Cl)CC2)[C@H](C)[C@H]1O[C@@H]1O[C@H](C)C[C@H](N(C)C)[C@H]1O | ≤ 0.125 | ≤ 0.125 | ≤ 0.125 | 4 (≈ 3.87 µM) | 4 (≈ 3.87 µM) | 0.25 (≈ 0.242 µM) | 1 (≈ 0.968 µM) | > 64 | 0.5 (≈ 0.484 µM) | 8 (≈ 7.75 µM)
4 | C=CCO[C@]1(C)C[C@@H](C)NC(=O)[C@H](C)[C@@H](O)[C@](C)(O)[C@@H](CC)OC(=O)[C@H](C)[C@@H](OC(=O)CCN2CCN(C(=O)c3ccco3)CC2)[C@H](C)[C@H]1O[C@@H]1O[C@H](C)C[C@H](N(C)C)[C@H]1O | 2 (≈ 2.31 µM) | 0.5 (≈ 0.578 µM) | 0.5 (≈ 0.578 µM) | 8 (≈ 9.25 µM) | > 64 | 2 (≈ 2.31 µM) | 4 (≈ 4.62 µM) | > 64 | 4 (≈ 4.62 µM) | > 64
5 | C=CCO[C@]1(C)C[C@@H](C)NC(=O)[C@H](C)[C@@H](O)[C@](C)(O)[C@@H](CC)OC(=O)[C@H](C)[C@@H](OC(=O)CCNCCCCc2ccccc2)[C@H](C)[C@H]1O[C@@H]1O[C@H](C)C[C@H](N(C)C)[C@H]1O | 2 (≈ 2.4 µM) | 0.5 (≈ 0.599 µM) | 2 (≈ 2.4 µM) | 16 (≈ 19.2 µM) | > 64 | 8 (≈ 9.59 µM) | 2 (≈ 2.4 µM) | > 64 | 4 (≈ 4.8 µM) | > 64
6 | C=CCO[C@]1(C)C[C@@H](C)NC(=O)[C@H](C)[C@@H](O)[C@](C)(O)[C@@H](CC)OC(=O)[C@H](C)[C@@H](OC(=O)CCNC(C)C(=O)Nc2cnc3ccccc3c2)[C@H](C)[C@H]1O[C@@H]1O[C@H](C)C[C@H](N(C)C)[C@H]1O (some centres not stated) | 0.5 (≈ 0.555 µM) | ≤ 0.125 | ≤ 0.125 | 4 (≈ 4.44 µM) | 16 (≈ 17.8 µM) | 1 (≈ 1.11 µM) | 1 (≈ 1.11 µM) | > 64 | 0.25 (≈ 0.278 µM) | 8 (≈ 8.89 µM)
7 | O=C(O)c1cn(C2CC2)c2ccc(N3CCNCC3)cc2c1=O | > 64 | > 64 | > 64 | > 64 |  |  |  |  |  | 
8 | C=CCO[C@]1(C)C[C@@H](C)NC(=O)[C@H](C)[C@@H](O)[C@](C)(O)[C@@H](CC)OC(=O)[C@H](C)[C@@H](OC(=O)CCNC(C)C(=O)Nc2ccccc2)[C@H](C)[C@H]1O[C@@H]1O[C@H](C)C[C@H](N(C)C)[C@H]1O (some centres not stated) | 2 (≈ 2.36 µM) | 0.25 (≈ 0.294 µM) | 0.5 (≈ 0.589 µM) | 16 (≈ 18.8 µM) | > 64 | 4 (≈ 4.71 µM) | 2 (≈ 2.36 µM) | > 64 | 1 (≈ 1.18 µM) | > 64
9 | C=CCO[C@]1(C)C[C@@H](C)NC(=O)[C@H](C)[C@@H](O)[C@](C)(O)[C@@H](CC)OC(=O)[C@H](C)[C@@H](OC(=O)CCN(C)CCc2ccccc2)[C@H](C)[C@H]1O[C@@H]1O[C@H](C)C[C@H](N(C)C)[C@H]1O | 4 (≈ 4.88 µM) | 0.25 (≈ 0.305 µM) | 0.5 (≈ 0.61 µM) | 16 (≈ 19.5 µM) | > 64 | 4 (≈ 4.88 µM) | 8 (≈ 9.76 µM) | > 64 | 2 (≈ 2.44 µM) | > 64
10 | C=CCO[C@]1(C)C[C@@H](C)NC(=O)[C@H](C)[C@@H](O)[C@](C)(O)[C@@H](CC)OC(=O)[C@H](C)[C@@H](OC(=O)CCN(C)CCc2ccc([N+](=O)[O-])cc2)[C@H](C)[C@H]1O[C@@H]1O[C@H](C)C[C@H](N(C)C)[C@H]1O | 0.5 (≈ 0.578 µM) | ≤ 0.125 | ≤ 0.125 | 8 (≈ 9.25 µM) | > 64 | 0.5 (≈ 0.578 µM) |  | > 64 |  | > 64
11 | C=CCO[C@]1(C)C[C@@H](C)NC(=O)[C@H](C)[C@@H](OC(=O)C=C)[C@](C)(O)[C@@H](CC)OC(=O)[C@H](C)[C@@H](OC(=O)C=C)[C@H](C)[C@H]1O[C@@H]1O[C@H](C)C[C@H](N(C)C)[C@H]1O | 32 (≈ 43.3 µM) | 32 (≈ 43.3 µM) | 32 (≈ 43.3 µM) | > 64 | > 64 | > 64 | > 64 | > 64 | > 64 | > 64
12 | C=CCO[C@]1(C)C[C@@H](C)NC(=O)[C@H](C)[C@@H](O)[C@](C)(O)[C@@H](CC)OC(=O)[C@H](C)[C@@H](OC(=O)CCN2CCN(c3ccc(F)cc3)CC2)[C@H](C)[C@H]1O[C@@H]1O[C@H](C)C[C@H](N(C)C)[C@H]1O | 2 (≈ 2.31 µM) | 0.25 (≈ 0.289 µM) | 1 (≈ 1.16 µM) | 16 (≈ 18.5 µM) | > 64 | 4 (≈ 4.62 µM) | 2 (≈ 2.31 µM) | > 64 | 2 (≈ 2.31 µM) | > 64
13 | C=CCO[C@]1(C)C[C@@H](C)NC(=O)[C@H](C)[C@@H](O)[C@](C)(O)[C@@H](CC)OC(=O)[C@H](C)[C@@H](OC(=O)CCNC(C)Cc2ccccc2)[C@H](C)[C@H]1O[C@@H]1O[C@H](C)C[C@H](N(C)C)[C@H]1O (some centres not stated) | 4 (≈ 4.88 µM) | 1 (≈ 1.22 µM) | 1 (≈ 1.22 µM) | 8 (≈ 9.76 µM) | > 64 | 4 (≈ 4.88 µM) | 2 (≈ 2.44 µM) | > 64 | 2 (≈ 2.44 µM) | > 64
14 | C=CCO[C@]1(C)C[C@@H](C)NC(=O)[C@H](C)[C@@H](O)[C@](C)(O)[C@@H](CC)OC(=O)[C@H](C)[C@@H](OC(=O)CCNCCNc2cc3c(cc2F)c(=O)c(C(=O)O)cn3C2CC2)[C@H](C)[C@H]1O[C@@H]1O[C@H](C)C[C@H](N(C)C)[C@H]1O | 0.25 (≈ 0.252 µM) | 0.25 (≈ 0.252 µM) | 0.25 (≈ 0.252 µM) | 2 (≈ 2.02 µM) | 2 (≈ 2.02 µM) | 0.25 (≈ 0.252 µM) | 0.5 (≈ 0.505 µM) | > 64 | 0.5 (≈ 0.505 µM) | 16 (≈ 16.2 µM)
15 | C=CCO[C@]1(C)C[C@@H](C)NC(=O)[C@H](C)[C@@H](O)[C@](C)(O)[C@@H](CC)OC(=O)[C@H](C)[C@@H](OC(=O)CCNC(C)C(=O)Nc2ccc3ncccc3c2)[C@H](C)[C@H]1O[C@@H]1O[C@H](C)C[C@H](N(C)C)[C@H]1O (some centres not stated) | 0.5 (≈ 0.555 µM) | ≤ 0.125 | ≤ 0.125 | 4 (≈ 4.44 µM) | 8 (≈ 8.89 µM) | 0.5 (≈ 0.555 µM) | 0.25 (≈ 0.278 µM) | > 64 | 0.25 (≈ 0.278 µM) | 4 (≈ 4.44 µM)
16 | C=CCO[C@]1(C)C[C@@H](C)NC(=O)[C@H](C)[C@@H](O)[C@](C)(O)[C@@H](CC)OC(=O)[C@H](C)[C@@H](OC(=O)CCNC(C)Cc2ccc(OC)cc2)[C@H](C)[C@H]1O[C@@H]1O[C@H](C)C[C@H](N(C)C)[C@H]1O (some centres not stated) | 2 (≈ 2.35 µM) | 0.5 (≈ 0.588 µM) | 0.25 (≈ 0.294 µM) | 16 (≈ 18.8 µM) | > 64 | 2 (≈ 2.35 µM) | 4 (≈ 4.71 µM) | > 64 | 2 (≈ 2.35 µM) | > 64
17 | C=CCO[C@]1(C)C[C@@H](C)NC(=O)[C@H](C)[C@@H](O)[C@](C)(O)[C@@H](CC)OC(=O)[C@H](C)[C@@H](OC(=O)CCNCCCc2ccccc2)[C@H](C)[C@H]1O[C@@H]1O[C@H](C)C[C@H](N(C)C)[C@H]1O | 2 (≈ 2.44 µM) | 1 (≈ 1.22 µM) | 2 (≈ 2.44 µM) | 16 (≈ 19.5 µM) | > 64 | 4 (≈ 4.88 µM) | 8 (≈ 9.76 µM) | > 64 | 4 (≈ 4.88 µM) | > 64
18 | C=CCO[C@]1(C)C[C@@H](C)NC(=O)[C@H](C)[C@@H](O)[C@](C)(O)[C@@H](CC)OC(=O)[C@H](C)[C@@H](OC(=O)CCNC(C)C(=O)Nc2ccc([N+](=O)[O-])cc2)[C@H](C)[C@H]1O[C@@H]1O[C@H](C)C[C@H](N(C)C)[C@H]1O (some centres not stated) | 1 (≈ 1.12 µM) | ≤ 0.125 | ≤ 0.125 | 8 (≈ 8.95 µM) | > 64 | 1 (≈ 1.12 µM) | 0.5 (≈ 0.559 µM) | > 64 | 0.25 (≈ 0.28 µM) | > 64
19 | NCCNc1cc2c(=O)c(C(=O)O)cn(C3CC3)c2cc1Cl | > 64 | > 64 | > 64 | > 64 |  |  |  |  |  | 
20 | C=CCO[C@]1(C)C[C@@H](C)NC(=O)[C@H](C)[C@@H](O)[C@](C)(O)[C@@H](CC)OC(=O)[C@H](C)[C@@H](OC(=O)C=C)[C@H](C)[C@H]1O[C@@H]1O[C@H](C)C[C@H](N(C)C)[C@H]1O | 32 (≈ 46.7 µM) | 16 (≈ 23.4 µM) | 16 (≈ 23.4 µM) | > 64 | > 64 | > 64 | > 64 | > 64 | > 64 | > 64
21 | CC[C@H]1OC(=O)[C@H](C)C(=O)[C@H](C)[C@@H](O[C@@H]2O[C@H](C)C[C@H](N(C)C)[C@H]2O)[C@](C)(OCC=Cc2cnc3ccccc3c2)C[C@@H](C)C(=O)[C@H](C)[C@H]2NC(=O)O[C@@]21C [CETHROMYCIN] | ≤ 0.125 | ≤ 0.06 | ≤ 0.06 | 2 (≈ 2.61 µM) | ≤ 0.125 | 0.25 (≈ 0.326 µM) | ≤ 0.125 | > 64 |  | 1 (≈ 1.31 µM)
22 | O=C(O)c1cn(C2CC2)c2cc(N3CCNCC3)c(F)cc2c1=O [CIPROFLOXACIN] | ≤ 0.125 | ≤ 0.125 | 2 (≈ 6.04 µM) | ≤ 0.125 | 0.25 (≈ 0.754 µM) |  | ≤ 0.125 |  | 0.25 (≈ 0.754 µM) | 0.5 (≈ 1.51 µM)
